Reference: ChEMBL document CHEMBL1157879
The source made the active and inactive calls. The rule behind the calls is not given here.

Assays:
[1] = target: Lysosomal alpha-glucosidase (Homo sapiens) (UniProt P10253); experiment: Activation of purified human recombinant acid alpha-glucosidase using resorufin alpha-D-glucopyranoside as substrate at 100 uM after 45 mins relative to basal
[2] = target: Lysosomal alpha-glucosidase (Homo sapiens) (UniProt P10253); experiment: Activation of purified human recombinant acid alpha-glucosidase using 4-methylumbelliferyl-alpha-D-glucopyranoside as substrate after 45 mins relative to basal
[3] = target: Lysosomal alpha-glucosidase (Homo sapiens) (UniProt P10253); experiment: Activation of purified human recombinant acid alpha-glucosidase using glycogen as substrate up to 100 uM after 45 mins
[4] = target: T1, Alpha-galactosidase A (Homo sapiens) (UniProt P06280); experiment: Activation of purified alpha-galactosidase A using 4-methylumbelliferyl-alpha-D-galactoside as substrate after 45 mins relative to basal
T1 sequence (whole entry): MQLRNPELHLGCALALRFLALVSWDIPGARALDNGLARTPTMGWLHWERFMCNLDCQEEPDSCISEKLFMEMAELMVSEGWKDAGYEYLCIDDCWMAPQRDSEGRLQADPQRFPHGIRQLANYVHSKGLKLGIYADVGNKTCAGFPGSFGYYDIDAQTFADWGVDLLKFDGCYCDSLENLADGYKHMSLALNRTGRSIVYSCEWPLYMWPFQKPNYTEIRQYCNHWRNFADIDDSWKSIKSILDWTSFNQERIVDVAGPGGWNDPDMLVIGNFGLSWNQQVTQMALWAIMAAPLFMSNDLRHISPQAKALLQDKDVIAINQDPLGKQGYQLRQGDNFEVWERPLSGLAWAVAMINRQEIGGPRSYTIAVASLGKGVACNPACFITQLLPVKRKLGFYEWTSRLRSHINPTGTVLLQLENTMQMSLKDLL

[5] = target: Lysosomal alpha-glucosidase (Homo sapiens) (UniProt P10253); experiment: Activation of purified acid alpha-glucosidase in human spleen homogenates using resorufin alpha-D-glucopyranoside as substrate after 45 mins relative to basal
[6] = target: Lysosomal alpha-glucosidase (Homo sapiens) (UniProt P10253); experiment: Activation of purified acid alpha-glucosidase in human spleen homogenates using resorufin alpha-D-glucopyranoside as substrate at 10 uM after 45 mins relative to basal
[7] = target: Lysosomal alpha-glucosidase (Homo sapiens) (UniProt P10253); experiment: Activation of purified acid alpha-glucosidase in human spleen homogenates using 4-methylumbelliferyl-alpha-D-glucopyranoside as substrate after 45 mins relative to basal
[8] = target: Lysosomal alpha-glucosidase (Homo sapiens) (UniProt P10253); experiment: Activation of purified human recombinant acid alpha-glucosidase using resorufin alpha-D-glucopyranoside as substrate after 45 mins relative to basal

Row | Compound | Activity [1] | further results
1 | CCCN1CNc2c(c(=O)[nH]c(=S)n2CCc2cccc(Cl)c2)C1 | 197% | –
2 | COc1ccc(C(=O)NC2(C(F)(F)F)C(=O)Nc3c2c(=O)[nH]c(=O)n3CCc2ccc(OC)c(OC)c2)cc1 (stereo unspecified) | 121% | –
3 | COc1ccc(CCn2c(=S)[nH]c(=O)c3c(C)cc(C)nc32)cc1OC | inactive | –
4 | CCCN1CNc2c(c(=O)[nH]c(=S)n2CCc2ccccc2C)C1 | 136% | –
5 | CCCN1CNc2c(c(=O)[nH]c(=S)n2Cc2ccc(OCC)c(OCC)c2)C1 | 365% | Activity [2]: Dose-dependent effect; Activity [3]: inactive; Activity [4]: inactive
6 | COc1ccc(C#Cc2c[nH]c(=O)c3cncnc23)cc1OC | inactive | –
7 | CCCN1CNc2c(c(=O)[nH]c(=S)n2CC(C)C)C1 | inactive | –
8 | CCCN1CNc2c(c(=O)[nH]c(=S)n2CCc2cccc(OC)c2OC)C1 | 262% | –
9 | CCCN1CNc2c(c(=O)[nH]c(=S)n2CCc2c(OC)cccc2OC)C1 | 227% | –
10 | COc1ccc(CCn2c3c(c(=O)[nH]c2=S)CN(c2ccccc2)CN3)cc1OC | 275% | –
11 | CCCN1CNc2c(c(=O)[nH]c(=S)n2CCc2cccs2)C1 | 221% | –
12 | CCCN1CNc2c(c(=O)[nH]c(=S)n2CCc2ccc(Cl)cc2)C1 | 120% | –
13 | CCCN1CNc2c(c(=O)[nH]c(=S)n2CCc2ccc(OC)c(OC)c2)C1 | 356% | Activity [2]: Dose-dependent effect; Activity [3]: inactive; Activity [5]: Dose-dependent effect; Activity [4]: inactive; fold change (FC) [6]: 1.5; Activity [7]: Dose-dependent effect; Activity [8]: Dose-dependent effect
14 | CCCN1CNc2c(c(=O)[nH]c(=S)n2CCc2cccc(OC)c2)C1 | 302% | –
15 | CCCN1CNc2c(c(=O)[nH]c(=S)n2CCc2ccc(C)cc2)C1 | 300% | –
16 | CCCN1CNc2c(c(=O)[nH]c(=S)n2CCc2ccc(OC)cc2)C1 | 309% | –
17 | CCCN1CNc2c(c(=O)[nH]c(=S)n2CC(C)(C)C)C1 | inactive | –
18 | CCCN1CNc2c(c(=O)[nH]c(=S)n2CCc2cccc(C)c2C)C1 | 300% | –
19 | CCCCn1c(N)c(NCC)c(=O)[nH]c1=O | inactive | –

Row | Compound | Activity [1] | further results
20 | CCCN1CNc2c(c(=O)[nH]c(=S)n2CCc2ccc3c(c2)OCCO3)C1 | 328% | –
21 | CCCN1CNc2c(c(=O)[nH]c(=S)n2CCc2cccc(Cl)c2Cl)C1 | 346% | Activity [2]: Dose-dependent effect; Activity [3]: inactive; Activity [4]: inactive
22 | CCCN1CNc2c(c(=O)[nH]c(=S)n2CCc2ccccn2)C1 | 30.6% | –
23 | CCCN1CNc2c(c(=O)[nH]c(=S)n2CCc2cc(Cl)ccc2Cl)C1 | 325% | –
24 | COc1ccc(C#Cc2cnc(Cl)c3cncnc23)cc1OC | inactive | –
25 | COc1ccc(CCn2c3c(c(=O)[nH]c2=O)C(NC(=O)c2cccs2)(C(F)(F)F)C(=O)N3)cc1OC (stereo unspecified) | 64.2% | –
26 | CCCN1CNc2c(c(=O)[nH]c(=S)n2CCc2c(C)cccc2C)C1 | 112% | –
27 | CCCN1CNc2c(c(=O)[nH]c(=S)n2CCc2cc(OC)cc(OC)c2)C1 | 332% | –
28 | CCCN1CNc2c(c(=O)[nH]c(=S)n2CCc2c(Cl)cccc2Cl)C1 | 332% | Activity [2]: Dose-dependent effect; Activity [3]: inactive; Activity [4]: inactive
29 | O=c1[nH]cc(C#Cc2ccccc2)c2ncncc12 | inactive | –
30 | CCCN1CNc2c(c(=O)[nH]c(=S)n2CCc2ccccc2OC)C1 | 243% | –
31 | COc1ccc(CCn2c(=S)[nH]c(=O)c3nccnc32)cc1OC | inactive | –
32 | COc1ccc(CCc2c[nH]c(=O)c3cncnc23)cc1OC | inactive | –
33 | COc1ccc(CCn2c(=S)[nH]c(=O)c3nc[nH]c32)cc1OC | inactive | –
34 | CCCN1CNc2c(c(=O)[nH]c(=S)n2CCc2ccsc2)C1 | 192% | –
35 | CCCN1CNc2c(c(=O)[nH]c(=S)n2CCc2ccccc2Cl)C1 | 311% | –
36 | COc1ccc(CCn2c3c(c(=O)[nH]c2=S)CN(C)CN3)cc1OC | 282% | –
37 | CCCN1CNc2c(c(=O)[nH]c(=S)n2CCc2cc(C)ccc2C)C1 | 245% | –

Continued, in another order:

Row | Activity [1] | Compound | further results
38 | 295% | CCCN1CNc2c(c(=O)[nH]c(=S)n2CCc2cccc(C)c2)C1 | –
39 | 316% | CCCN1CNc2c(c(=O)[nH]c(=S)n2CCc2cc(Cl)cc(Cl)c2)C1 | –
40 | 166% | CCCN1CNc2c(c(=O)[nH]c(=S)n2CCCc2ccccc2)C1 | –
41 | 321% | CCCN1CNc2c(c(=O)[nH]c(=S)n2CCc2ccc(Cl)cc2Cl)C1 | –
42 | 88.8% | CCCN1CNc2c(c(=O)[nH]c(=S)n2CCc2ccc(Cl)c(Cl)c2)C1 | –
43 | 32.1% | COc1ccc(CCn2c(N)cc(=O)[nH]c2=S)cc1OC | –
44 | 327% | CCCN1CNc2c(c(=O)[nH]c(=S)n2CCc2cc(OC)ccc2OC)C1 | –
45 | 323% | CCCN1CNc2c(c(=O)[nH]c(=S)n2CCc2ccc(C)cc2C)C1 | –
46 | inactive | O=c1[nH]cc(CCc2ccccc2)c2ncncc12 | –
47 | 306% | CCCN1CNc2c(c(=O)[nH]c(=S)n2CCc2ccc(OCC)c(OCC)c2)C1 | –
48 | 338% | CCCN1CNc2c(c(=O)[nH]c(=S)n2CCc2ccc(C)c(C)c2)C1 | –
49 | inactive | CCCN1CNc2c(c(=O)[nH]c(=S)n2CCC)C1 | –
50 | 308% | CCCN1CNc2c(c(=O)[nH]c(=S)n2CCc2ccc(OC)cc2OC)C1 | –
51 | 218% | CCCN1CNc2c(c(=O)[nH]c(=S)n2CCc2cc(C)cc(C)c2)C1 | –
52 | 297% | CCCN1CNc2c(c(=O)[nH]c(=O)n2CCc2ccc(OC)c(OC)c2)C1 | –
53 | inactive | Clc1ncc(C#Cc2ccccc2)c2ncncc12 | –
54 | 335% | COc1ccc(CCn2c3c(c(=O)[nH]c2=S)CN(Cc2ccccc2)CN3)cc1OC | –
55 | 142% | CCCN1CNc2c(c(=O)[nH]c(=S)n2CCc2ccccc2)C1 | –
56 | 234% | COc1ccc(CCn2c3c(c(=O)[nH]c2=S)CN(C(C)C)CN3)cc1OC | Activity [2]: Dose-dependent effect; Activity [4]: inactive
57 | 338% | COc1ccc(CCn2c3c(c(=O)[nH]c2=S)CN(CC(C)C)CN3)cc1OC | Activity [3]: inactive
